Publication PMC7216583 (Parasites & Vectors, 2020)
Counter-ions that a name gives are not always drawn. Like-named read-outs stand apart in the source and are kept apart here.

Assays:
HSP90 = details: ref library vendor description, cited from earlier work
[1] = tested on: Toxoplasma gondii RH-2F tachyzoites; test: microbe, parasite or virus in culture; details: 72 h; for inhibition at 5 µM: read-out: Parasite inhibition (%) Mean ± SD
JAK2 = tested on: JAK2; parameters: method as in S-inhibitor catalog; details: vendor brief description; ref S-inhibitor catalog; cited from earlier work
PDK-1 = tested on: PDK-1; parameters: method as in library vendor description; details: ref library vendor description, cited from earlier work
mTOR [2] = tested on: mTOR; parameters: method as in S-inhibitor catalog; details: vendor brief description; ref S-inhibitor catalog; cited from earlier work
PDGFRβ [3] = tested on: PDGFRβ; parameters: method as in S-inhibitor; details: ref S-inhibitor; cited from earlier work
Flt4 = tested on: Flt4; parameters: method as in library vendor description; details: ref library vendor description; cited from earlier work
VEGFR2 = tested on: VEGFR2; parameters: method as in library vendor description; details: ref library vendor description; cited from earlier work
Flt1 = tested on: Flt1; parameters: method as in library vendor description; details: ref library vendor description; cited from earlier work
mTOR [4] = tested on: mTOR; parameters: method as in library vendor description; details: ref library vendor description; cited from earlier work
in vitro = details: human; for viability at 72 h: Host viability (%) mean; for viability at 72 h, 5 µM: Host viability (%) Mean ± SD
VEGFR3 = tested on: VEGFR3; parameters: method as in library vendor description; details: ref library vendor description; cited from earlier work
VEGFR-2 = tested on: VEGFR-2; parameters: method as in vendor brief description; details: ref vendor brief description; cited from earlier work
HDAC = tested on: HDAC; parameters: method as in S-inhibitor; details: ref S-inhibitor; cited from earlier work
[5] = tested on: chymotrypsin-like proteolytic (β5) site of the 20S proteasome; parameters: method as in S-inhibitor; details: ref S-inhibitor; cited from earlier work
PDGFRβ [6] = tested on: PDGFRβ; parameters: method as in library vendor description; details: ref library vendor description; cited from earlier work
S6K1 = tested on: S6K1; parameters: method as in S-inhibitor; details: ref S-inhibitor; cited from earlier work
[7] = tested on: Toxoplasma gondii RH-2F tachyzoites
VEGFR1 = tested on: VEGFR1; parameters: method as in library vendor description; details: ref library vendor description; cited from earlier work
c-Kit = tested on: c-Kit; parameters: method as in library vendor description; details: ref library vendor description; cited from earlier work
Ret = tested on: Ret; parameters: method as in library vendor description; details: ref library vendor description; cited from earlier work
Aurora B = tested on: Aurora B; parameters: method as in S-inhibitor catalog; details: vendor brief description; ref S-inhibitor catalog; cited from earlier work
[8] = tested on: human foreskin fibroblasts (HFFs); details: preliminary screen of compound library; mean
CCR5 = details: ref S-inhibitor, cited from earlier work
[9] = read-out: Parasite inhibition (%) mean, preliminary screen, mean
[10] = read-out: Parasite inhibition (%) mean, preliminary screen of compound library, mean

CO[C@H]1/C=C\C=C(\C)C(=O)NC2=CC(=O)C(NCCN(C)C)=C(C[C@@H](C)C[C@H](OC)[C@H](O)[C@@H](C)/C=C(\C)[C@@H]1OC(N)=O)C2=O [17-DMAG HCl (Alvespimycin)]
IC50 (HSP90; read-out: IC50 HSP90): 62 nM
inhibition of growth at 5 µM [1, 9]: 4.3%

Cc1cc(Nc2nc(N[C@@H](C)c3ccc(F)cc3)c(C#N)cc2F)[nH]n1 [AZ 960]
IC50 (JAK2): < 3 nM
Ki (JAK2): 0.45 nM
inhibition of growth at 5 µM [1, 9]: -2.1%

COc1c(C)cnc(Cn2cnc3c(Cl)nc(N)nc32)c1C [BIIB021]
inhibition of growth at 5 µM [1, 9]: 3.5%

O=C(Nc1cccc(Nc2ncc(Br)c(NCCc3cnc[nH]3)n2)c1)N1CCCC1 [BX-912]
IC50 (PDK-1; read-out: IC50 PDK-1): 12 nM
inhibition of growth at 5 µM [1, 9]: 1.4%

CN1CCN(c2cccc(Nc3nc4c(-c5ccc(S(C)(=O)=O)cc5)cccn4n3)c2)CC1 [CEP33779]
IC50 (JAK2): 1.8 nM
inhibition of growth at 5 µM [1, 10]: 7.8%

CS(=O)(=O)N1CCc2c(-c3cnc(N)nc3)nc(N3CCOCC3)nc21 [CH5132799]
IC50 (mTOR [2]): 1600 nM
inhibition of growth at 5 µM [1, 10]: 48.9%

COCCOc1ccc2c(c1)ncn2-c1ccc2cccc(N3CCC(N)CC3)c2n1 [CP 673451]
IC50 (PDGFRβ [3]): 1 nM
inhibition of growth at 5 µM [1, 9]: -13.8%

COc1cc2c(Oc3ccc4[nH]c(C)cc4c3F)ncnc2cc1OCCCN1CCCC1 [Cediranib (AZD2171)]
IC50 (Flt4): ≤ 3 nM
IC50 (VEGFR2): 0.5 nM
IC50 (Flt1): 5 nM
inhibition of growth at 5 µM [1, 9]: 0.4%

CO[C@H]1C[C@H]2CC[C@@H](C)[C@@](O)(O2)C(=O)C(=O)N2CCCC[C@H]2C(=O)O[C@H]([C@H](C)C[C@@H]2CC[C@H](OP(C)(C)=O)[C@H](OC)C2)CC(=O)[C@H](C)/C=C(\C)[C@@H](O)[C@@H](OC)C(=O)[C@H](C)C[C@H](C)/C=C/C=C/C=C/1C [Deforolimus (Ridaforolimus)]
IC50 (mTOR [4]): 0.2 nM
inhibition of growth at 5 µM [1, 9]: 36.8%

COc1cc2nccc(Oc3ccc(NC(=O)NC4CC4)c(Cl)c3)c2cc1C(N)=O [E7080 (Lenvatinib)]
IC50 (VEGFR2): 4 nM
viability at 72 h (in vitro): 52.1%
IC50 (VEGFR3): 5.2 nM
inhibition of growth at 5 µM [1, 9]: 84.1%

Cc1cc(Nc2cc(N3CCN(C)CC3)nc(/C=C/c3ccccc3)n2)n[nH]1 [ENMD-2076]
IC50 (Flt4): 15.9 nM
viability at 72 h (in vitro): 66.6%
inhibition of growth at 5 µM [1, 9]: 74.7%

Cc1c(CN2CCN(C(=O)[C@H](C)O)CC2)sc2c(N3CCOCC3)nc(-c3cnc(N)nc3)nc12 [GDC-0980 (RG7422)]
Ki (mTOR [2]): 17 nM
inhibition of growth at 5 µM [1, 10]: 33.7%

CN1CCN(C2CCN(C(=O)Nc3cc(Oc4ccc(NC(=O)C5(C(=O)Nc6ccc(F)cc6)CC5)c(F)c4)ccn3)CC2)CC1 [Golvatinib (E7050)]
viability at 72 h (in vitro): 78.3%
IC50 (VEGFR-2): 16 nM
inhibition of growth at 5 µM [1, 10]: 76.8%

CCN(CC)Cc1ccc2cc(COC(=O)Nc3ccc(C(=O)NO)cc3)ccc2c1 [ITF2357 (Givinostat)]
IC50 (HDAC): 7.5 to 16 nM
inhibition of growth at 5 µM [1, 9]: 62.2%

Cn1cc(/C=C/C(=O)c2cccc(F)c2)cc1/C=C/C(=O)NO [MC1568]
IC50 (HDAC): 220 nM
inhibition of growth at 5 µM [1, 9]: 35.4%

CC(C)C[C@H](NC(=O)CNC(=O)c1cc(Cl)ccc1Cl)B(O)O [MLN2238]
IC50 [5]: 3.4 nM
Ki [5]: 0.93 nM
inhibition of growth at 5 µM [1, 9]: 13.3%

Cc1ccc(NC(=O)c2ccc(CN3CCN(C)CC3)cc2)cc1Nc1nc(-c2cccnc2)cs1 [Masitinib (AB1010)]
inhibition of growth at 5 µM [1, 9]: 10.5%

NCC(=O)Nc1ccc(-n2nc(C(F)(F)F)cc2-c2ccc3c(ccc4ccccc43)c2)cc1 [OSU-03012 (AR-12)]
IC50 (PDK-1; recombinant PDK-1, read-out: IC50 recombinant PDK-1): 5000 nM
inhibition of growth at 5 µM [1, 9]: 5.4%

CCc1cncnc1N1CCN(Cc2nc3cc(C(F)(F)F)ccc3[nH]2)CC1 [PF-4708671]
IC50 (S6K1): 160 nM
Ki (S6K1): 20 nM
inhibition of growth at 5 µM [1, 9]: 60.6%

Cc1[nH]c(/C=C2\C(=O)Nc3ccc(S(=O)(=O)Cc4c(Cl)cccc4Cl)cc32)c(C)c1C(=O)N1CCC[C@@H]1CN1CCCC1 [PHA-665752, reference compound]
effect on T. gondii growth in the screen ([7]; 5 μM, 72 h): significantly inhibited T. gondii growth
viability at 72 h, 5 µM (in vitro): 80.5 ± 1.3%
viability at 72 h (in vitro): 80.5%
inhibition at 5 µM [1]: 92.3 ± 3.1%

CNC(=O)c1cc(Oc2ccc(NC(=O)Nc3ccc(Cl)c(C(F)(F)F)c3)c(F)c2)ccn1 [Regorafenib (BAY 73-4506)]
IC50 (c-Kit): 7 nM
IC50 (Ret): 1.5 nM
viability at 72 h (in vitro): 68.2%
inhibition of growth at 5 µM [1, 9]: 76.7%

CCCCc1nc2cc(/C=C/C(=O)NO)ccc2n1CCN(CC)CC [SB939 (Pracinostat)]
IC50 (HDAC): 40 to 140 nM
inhibition of growth at 5 µM [1, 9]: 34.6%

CCS(=O)(=O)c1cccc(-c2cc(C(=O)NC3CCN(C)CC3)c(C)c3[nH]c4ncc(C)cc4c23)c1 [TAK-901]
viability at 72 h (in vitro): 52.7%
IC50 (Aurora B): 15 nM
inhibition of growth at 5 µM [1, 10]: 77.8%

CO[C@H]1C[C@H]2CC[C@@H](C)[C@@](O)(O2)C(=O)C(=O)N2CCCC[C@H]2C(=O)O[C@H]([C@H](C)C[C@@H]2CC[C@H](OC(=O)C(C)(CO)CO)[C@H](OC)C2)CC(=O)[C@H](C)/C=C(\C)[C@@H](O)[C@@H](OC)C(=O)[C@H](C)C[C@H](C)/C=C/C=C/C=C/1C [Temsirolimus (Torisel)]
IC50 (mTOR [4]): 1760 nM
inhibition of growth at 5 µM [1, 9]: 22.4%

Clc1ccc(Nc2nnc(Cc3ccncc3)c3ccccc23)cc1 [Vatalanib 2HCl (PTK787)]
IC50 (c-Kit): 730 nM
inhibition of growth at 5 µM [1, 9]: -6.6%

c1cncc(CN2CCC(n3ncc4c(N5CCOCC5)nc(-c5ccc6[nH]ccc6c5)nc43)CC2)c1 [WAY-600]
IC50 (mTOR [2]): 9 nM
inhibition of growth at 5 µM [1, 10]: 35.5%

COC(=O)Nc1ccc(-c2nc(N3CCOCC3)c3cnn(C4CCN(C(=O)OC)CC4)c3n2)cc1 [WYE-354]
IC50 (mTOR [4]): 5 nM
inhibition of growth at 5 µM [1, 9]: 43.5%

COC(=O)Nc1ccc(-c2nc(N3CCOCC3)c3cnn(C4CCN(Cc5cccnc5)CC4)c3n2)cc1 [WYE-687]
IC50 (mTOR [2]): 7 nM
inhibition of growth at 5 µM [1, 10]: 28.7%

CNC(=O)Nc1ccc(-c2nc(N3CC4CCC(C3)O4)c3cnn(C4CCC5(CC4)OCCO5)c3n2)cc1 [WYE-125132]
IC50 (mTOR [2]): 0.19 nM
inhibition of growth at 5 µM [1, 10]: 44.4%

Cc1cc(F)c(Nc2ncnc3cc(OCc4ccccc4)ccc23)cc1O [ZM 323881 HCl, reference compound]
viability at 72 h, 5 µM (in vitro): 85.5 ± 5.4%
viability at 72 h (in vitro): 85.5%
IC50 (VEGFR-2): < 2 nM
inhibition at 5 µM [1]: 79.9 ± 1.4%

AT101
Parasite inhibition (%) mean [7]: 70.4%
Host viability (%) mean [8]: 68.8%

MLN9708
IC50 [5]: 3.4 nM
Ki [5]: 0.93 nM
Parasite inhibition (%) mean ([7]; preliminary screen, mean): 17.5%

Maraviroc
IC50 (CCR5; read-out: IC50, CCR5, MIP-1α, MIP-1α): 3.3 nM
IC50 (CCR5; read-out: IC50, CCR5, MIP-1β, MIP-1β): 7.2 nM
IC50 (CCR5; read-out: IC50, CCR5, RANTES, RANTES): 5.2 nM
